One compound from patent publication US7316900B2, “Methylated nucleotide regulation of gene expression” (Quebepharma Recherche, Inc., priority 2000, dated 2008) can be followed below.

The assay deals with uPA mRNA. The assay is described as follows: Northern blot of uPA mRNA in MCF-7 cells treated with demethylating agent (Example 6). The class given is cell-based, human. Particulars: 25 uM, ten days, vs vehicle alone. Here is the method:
Human breast cancer cells MCF-7 were maintained in culture and at 65% confluent cells were treated with vehicle alone (MCF-7) or 25 uM of the demethylating agent 5 azc (MCF-7+5azc) for ten days. MDA-231 cells were used as positive control (MDA-231) for uPA expression. At the end of this period 20 μg of cellular RNA from each group were electophoresed on a 1.1% agarose/formaldehyde gel and […] a ^32p labeled 18 S RNA probe. All blots (FIG. 1A) were quantified by densitometric scanning (FIG. 1B). Significant difference from control cells is represented by an asterisk (p<0.05).

In the case of `Nc1ncn([C@@H]2O[C@H](CO)[C@@H](O)[C@H]2O)c(=O)n1` [5-azc], the “uPA mRNA (Northern blot, densitometric scanning)” value is “marked induction”.
